Reference: PubChem BioAssay AID2060896 (Molecular Pharmacology Branch, DTP, NCI, 2025)

Test system: 941728-121-R-J1-PDC complex spheroid viability
Assay: Anticancer human tumor 941728-121-R-J1-PDC patient-derived lung adenocarcinoma cell line growth inhibition [RAS]
Details: for IC50: curve of first compound; for viability, T/C: stronger effect = lower value
Procedure, shortened: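 Tumour cells grown as complex spheroids with HUVEC endothelial cells and mesenchymal stem cells, treated with RAS pathway inhibitor combinations. Each agent spans half-log steps from near clinical Cmax, or 10 microM where Cmax is unknown.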

[1] = second compound 0.000949 µM, first compound 0.0316 µM
[2] = second compound 0.000949 µM, first compound 0.1 µM
[3] = second compound 0.000949 µM, first compound 0.316 µM
[4] = second compound 0.000949 µM, first compound 1 µM
[5] = second compound 0.003 µM, first compound 0.0316 µM
[6] = second compound 0.003 µM, first compound 0.1 µM
[7] = second compound 0.003 µM, first compound 0.316 µM
[8] = second compound 0.003 µM, first compound 1 µM
[9] = second compound 0.00949 µM, first compound 0.0316 µM
[10] = second compound 0.00949 µM, first compound 0.1 µM
[11] = second compound 0.00949 µM, first compound 0.316 µM
[12] = second compound 0.00949 µM, first compound 1 µM
[13] = second compound 0.03 µM, first compound 0.0316 µM
[14] = second compound 0.03 µM, first compound 0.1 µM
[15] = second compound 0.03 µM, first compound 0.316 µM
[16] = second compound 0.03 µM, first compound 1 µM
[17] = second compound 0.0949 µM, first compound 0.0316 µM
[18] = second compound 0.0949 µM, first compound 0.1 µM
[19] = second compound 0.0949 µM, first compound 0.316 µM
[20] = second compound 0.0949 µM, first compound 1 µM
[21] = second compound 0.3 µM, first compound 0.0316 µM
[22] = second compound 0.3 µM, first compound 0.1 µM
[23] = second compound 0.3 µM, first compound 0.316 µM
[24] = second compound 0.3 µM, first compound 1 µM
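Further: spheroids exposed to compounds for 7 days before readout.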
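Wherever viability, T/C is given: 100% = DMSO vehicle control viability.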

**Q.** With CC(Nc1ccc2c(c1)OCCn1cc(N3C(=O)OCC3C(F)F)nc1-2)C(N)=O (centres undefined) + CCn1c(-c2cccnc2C(C)OC)c2c3cc(ccc31)N1CCOC(CC(NC(=O)C(C(C)C)N(C)C(=O)C3(F)CCN(C(=O)C#CC(C)(C)N(C)C)CC3)C(=O)N3CCCC(N3)C(=O)OCC(C)(C)C2)C1 as the molecule, how does the IC50 (second compound 0.000949 µM) read?
**A.** Its IC50 is < 0.0316 µM.

**Q.** What about the IC50 (second compound 0.003 µM) of the same molecule?
**A.** The IC50 was < 0.0316 µM.

**Q.** And the IC50 (second compound 0.00949 µM)?
**A.** The IC50 was < 0.0316 µM.

**Q.** And the IC50 (second compound 0.03 µM)?
**A.** The IC50 was < 0.0316 µM.

**Q.** And the IC50 (second compound 0.0949 µM)?
**A.** The IC50 was < 0.0316 µM.

**Q.** And the IC50 (second compound 0.3 µM)?
**A.** Its IC50 is < 0.0316 µM.

**Q.** And the viability, T/C [1]?
**A.** Its viability, T/C is 18.5%.

**Q.** And the viability, T/C [2]?
**A.** The viability, T/C was 20.6%.

**Q.** And the viability, T/C [3]?
**A.** The viability, T/C was 12.5%.

**Q.** What about the viability, T/C [4] of the same molecule?
**A.** The viability, T/C was 15.8%.

**Q.** What about the viability, T/C (second compound 0.000949 µM, first compound 3.16 µM) of the same molecule?
**A.** Its viability, T/C is 13.3%.

**Q.** And the viability, T/C (second compound 0.000949 µM, first compound 10 µM)?
**A.** The viability, T/C was 9.24%.

**Q.** And the viability, T/C [5]?
**A.** The viability, T/C was 20.5%.

**Q.** And the viability, T/C [6]?
**A.** The viability, T/C was 17.2%.

**Q.** What about the viability, T/C [7] of the same molecule?
**A.** Its viability, T/C is 14.4%.

**Q.** What about the viability, T/C [8] of the same molecule?
**A.** Its viability, T/C is 14.3%.

**Q.** What about the viability, T/C (second compound 0.003 µM, first compound 3.16 µM) of the same molecule?
**A.** The viability, T/C was 13.8%.

**Q.** What about the viability, T/C (second compound 0.003 µM, first compound 10 µM) of the same molecule?
**A.** Its viability, T/C is 9.35%.

**Q.** What about the viability, T/C [9] of the same molecule?
**A.** Its viability, T/C is 18.9%.

**Q.** What about the viability, T/C [10] of the same molecule?
**A.** The viability, T/C was 15.3%.

**Q.** And the viability, T/C [11]?
**A.** Its viability, T/C is 15.1%.

**Q.** What about the viability, T/C [12] of the same molecule?
**A.** Its viability, T/C is 14.7%.

**Q.** What about the viability, T/C (second compound 0.00949 µM, first compound 3.16 µM) of the same molecule?
**A.** Its viability, T/C is 11.5%.

**Q.** What about the viability, T/C (second compound 0.00949 µM, first compound 10 µM) of the same molecule?
**A.** The viability, T/C was 11.7%.

**Q.** And the viability, T/C [13]?
**A.** Its viability, T/C is 19.8%.

**Q.** And the viability, T/C [14]?
**A.** Its viability, T/C is 18%.

**Q.** And the viability, T/C [15]?
**A.** Its viability, T/C is 14.6%.

**Q.** What about the viability, T/C [16] of the same molecule?
**A.** Its viability, T/C is 15.7%.

**Q.** What about the viability, T/C (second compound 0.03 µM, first compound 3.16 µM) of the same molecule?
**A.** The viability, T/C was 9.34%.

**Q.** And the viability, T/C (second compound 0.03 µM, first compound 10 µM)?
**A.** Its viability, T/C is 12.8%.

**Q.** And the viability, T/C [17]?
**A.** The viability, T/C was 18.8%.

**Q.** What about the viability, T/C [18] of the same molecule?
**A.** The viability, T/C was 18.4%.

**Q.** And the viability, T/C [19]?
**A.** The viability, T/C was 15.8%.

**Q.** And the viability, T/C [20]?
**A.** The viability, T/C was 11.8%.

**Q.** And the viability, T/C (second compound 0.0949 µM, first compound 3.16 µM)?
**A.** Its viability, T/C is 12.1%.

**Q.** And the viability, T/C (second compound 0.0949 µM, first compound 10 µM)?
**A.** Its viability, T/C is 13.7%.

**Q.** What about the viability, T/C [21] of the same molecule?
**A.** The viability, T/C was 19.9%.

**Q.** And the viability, T/C [22]?
**A.** The viability, T/C was 18.8%.

**Q.** And the viability, T/C [23]?
**A.** Its viability, T/C is 14.6%.

**Q.** What about the viability, T/C [24] of the same molecule?
**A.** Its viability, T/C is 14.7%.

**Q.** What about the viability, T/C (second compound 0.3 µM, first compound 3.16 µM) of the same molecule?
**A.** The viability, T/C was 13.5%.

**Q.** What about the viability, T/C (second compound 0.3 µM, first compound 10 µM) of the same molecule?
**A.** The viability, T/C was 12.3%.

**Q.** How did the IC50 (second compound 0.000949 µM) turn out when O=C(c1ccc(F)c(F)c1Nc1ccc(I)cc1F)N1CC(O)([C@@H]2CCCCN2)C1 + CCn1c(-c2cccnc2C(C)OC)c2c3cc(ccc31)N1CCOC(CC(NC(=O)C(C(C)C)N(C)C(=O)C3(F)CCN(C(=O)C#CC(C)(C)N(C)C)CC3)C(=O)N3CCCC(N3)C(=O)OCC(C)(C)C2)C1 was run?
**A.** Its IC50 is < 0.00316 µM.

**Q.** What about the IC50 (second compound 0.003 µM) of the same molecule?
**A.** The IC50 was 0.0219 µM.

**Q.** What about the IC50 (second compound 0.00949 µM) of the same molecule?
**A.** The IC50 was < 0.00316 µM.

**Q.** What about the IC50 (second compound 0.03 µM) of the same molecule?
**A.** The IC50 was < 0.00316 µM.

**Q.** And the IC50 (second compound 0.0949 µM)?
**A.** The IC50 was < 0.00316 µM.

**Q.** What about the IC50 (second compound 0.3 µM) of the same molecule?
**A.** Its IC50 is < 0.00316 µM.

**Q.** What about the viability, T/C (second compound 0.000949 µM, first compound 0.00316 µM) of the same molecule?
**A.** Its viability, T/C is 20.5%.

**Q.** What about the viability, T/C (second compound 0.000949 µM, first compound 0.01 µM) of the same molecule?
**A.** Its viability, T/C is 18.8%.

**Q.** What about the viability, T/C [1] of the same molecule?
**A.** Its viability, T/C is 13.7%.

**Q.** And the viability, T/C [2]?
**A.** The viability, T/C was 17.1%.

**Q.** What about the viability, T/C [3] of the same molecule?
**A.** Its viability, T/C is 12.5%.

**Q.** And the viability, T/C [4]?
**A.** The viability, T/C was 7.9%.

**Q.** What about the viability, T/C (second compound 0.003 µM, first compound 0.00316 µM) of the same molecule?
**A.** Its viability, T/C is 94.2%.

**Q.** What about the viability, T/C (second compound 0.003 µM, first compound 0.01 µM) of the same molecule?
**A.** Its viability, T/C is 64.1%.

**Q.** What about the viability, T/C [5] of the same molecule?
**A.** The viability, T/C was 37.4%.

**Q.** What about the viability, T/C [6] of the same molecule?
**A.** The viability, T/C was 38%.

**Q.** What about the viability, T/C [7] of the same molecule?
**A.** Its viability, T/C is 35.4%.

**Q.** What about the viability, T/C [8] of the same molecule?
**A.** Its viability, T/C is 18.4%.

**Q.** And the viability, T/C (second compound 0.00949 µM, first compound 0.00316 µM)?
**A.** Its viability, T/C is 18.6%.

**Q.** And the viability, T/C (second compound 0.00949 µM, first compound 0.01 µM)?
**A.** The viability, T/C was 15.4%.

**Q.** What about the viability, T/C [9] of the same molecule?
**A.** The viability, T/C was 17%.

**Q.** What about the viability, T/C [10] of the same molecule?
**A.** The viability, T/C was 14.6%.

**Q.** And the viability, T/C [11]?
**A.** The viability, T/C was 11.6%.

**Q.** And the viability, T/C [12]?
**A.** The viability, T/C was 9.5%.

**Q.** And the viability, T/C (second compound 0.03 µM, first compound 0.00316 µM)?
**A.** The viability, T/C was 18.3%.

**Q.** What about the viability, T/C (second compound 0.03 µM, first compound 0.01 µM) of the same molecule?
**A.** Its viability, T/C is 17.9%.

**Q.** And the viability, T/C [13]?
**A.** Its viability, T/C is 18.8%.

**Q.** And the viability, T/C [14]?
**A.** Its viability, T/C is 12.8%.

**Q.** What about the viability, T/C [15] of the same molecule?
**A.** Its viability, T/C is 12.4%.

**Q.** And the viability, T/C [16]?
**A.** The viability, T/C was 12.2%.

**Q.** What about the viability, T/C (second compound 0.0949 µM, first compound 0.00316 µM) of the same molecule?
**A.** Its viability, T/C is 19.4%.

**Q.** What about the viability, T/C (second compound 0.0949 µM, first compound 0.01 µM) of the same molecule?
**A.** Its viability, T/C is 17.1%.

**Q.** And the viability, T/C [17]?
**A.** The viability, T/C was 15.8%.

**Q.** What about the viability, T/C [18] of the same molecule?
**A.** Its viability, T/C is 13.6%.

**Q.** And the viability, T/C [19]?
**A.** Its viability, T/C is 12.9%.

**Q.** And the viability, T/C [20]?
**A.** The viability, T/C was 15.1%.

**Q.** What about the viability, T/C (second compound 0.3 µM, first compound 0.00316 µM) of the same molecule?
**A.** The viability, T/C was 17.9%.

**Q.** What about the viability, T/C (second compound 0.3 µM, first compound 0.01 µM) of the same molecule?
**A.** The viability, T/C was 20%.

**Q.** And the viability, T/C [21]?
**A.** Its viability, T/C is 15.8%.

**Q.** What about the viability, T/C [22] of the same molecule?
**A.** The viability, T/C was 15.7%.

**Q.** And the viability, T/C [23]?
**A.** The viability, T/C was 13.7%.

**Q.** And the viability, T/C [24]?
**A.** The viability, T/C was 14%.
